pEC50, pIC50, pKi: −log10 of the molar value. Values after ≈ are worked out from the molar mass of the structure shown. Values joined by “and” are separate entries in the source; they are usually repeats but may differ in a detail not shown here. Equal values may be shown once. Active and inactive are the calls of the source. The rule behind the calls is not given here.
Experiments:
[1] = target: Translocator protein (Homo sapiens, UniProt P30536); assay: Binding affinity to TSPO (unknown origin)
Sequence of Translocator protein (P30536 whole entry): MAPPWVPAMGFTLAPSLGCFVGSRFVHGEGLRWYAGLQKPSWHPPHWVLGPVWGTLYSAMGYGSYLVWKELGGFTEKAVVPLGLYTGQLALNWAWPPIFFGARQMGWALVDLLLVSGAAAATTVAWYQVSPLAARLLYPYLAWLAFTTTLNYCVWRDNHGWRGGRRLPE

[2] = target: Sigma intracellular receptor 2 (Homo sapiens, UniProt Q5BJF2); assay: Binding affinity to sigma 2 receptor (unknown origin)
Sequence of Sigma intracellular receptor 2 (Q5BJF2 whole entry): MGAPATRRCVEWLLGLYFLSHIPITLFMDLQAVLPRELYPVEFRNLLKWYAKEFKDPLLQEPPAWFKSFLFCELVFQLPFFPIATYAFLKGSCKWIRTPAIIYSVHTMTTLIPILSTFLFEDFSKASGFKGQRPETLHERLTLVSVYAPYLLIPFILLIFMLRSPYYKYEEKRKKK

[3] = target: T1, P2Y purinoceptor 14 (Homo sapiens, UniProt Q15391); assay: cell-based
T1 sequence (Q15391 whole entry): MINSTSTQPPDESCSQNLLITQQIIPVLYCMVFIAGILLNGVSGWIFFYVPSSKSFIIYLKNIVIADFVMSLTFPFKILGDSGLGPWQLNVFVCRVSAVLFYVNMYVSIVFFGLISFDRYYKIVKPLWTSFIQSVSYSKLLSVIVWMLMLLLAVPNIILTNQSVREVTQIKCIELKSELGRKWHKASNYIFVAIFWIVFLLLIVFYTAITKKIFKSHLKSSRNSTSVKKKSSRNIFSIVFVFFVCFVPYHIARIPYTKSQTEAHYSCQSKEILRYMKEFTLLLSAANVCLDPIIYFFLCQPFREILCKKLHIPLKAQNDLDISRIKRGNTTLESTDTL

[4] = Aqueous solubility of compound at pH 7.4; type: physicochemical; settings: buffer
[5] = Aqueous solubility of compound at pH 4.0; type: physicochemical; settings: buffer
[6] = target: Histamine H1 receptor (Homo sapiens, UniProt P35367); assay: Binding affinity to H1 receptor (unknown origin)
Sequence of Histamine H1 receptor (P35367 whole entry): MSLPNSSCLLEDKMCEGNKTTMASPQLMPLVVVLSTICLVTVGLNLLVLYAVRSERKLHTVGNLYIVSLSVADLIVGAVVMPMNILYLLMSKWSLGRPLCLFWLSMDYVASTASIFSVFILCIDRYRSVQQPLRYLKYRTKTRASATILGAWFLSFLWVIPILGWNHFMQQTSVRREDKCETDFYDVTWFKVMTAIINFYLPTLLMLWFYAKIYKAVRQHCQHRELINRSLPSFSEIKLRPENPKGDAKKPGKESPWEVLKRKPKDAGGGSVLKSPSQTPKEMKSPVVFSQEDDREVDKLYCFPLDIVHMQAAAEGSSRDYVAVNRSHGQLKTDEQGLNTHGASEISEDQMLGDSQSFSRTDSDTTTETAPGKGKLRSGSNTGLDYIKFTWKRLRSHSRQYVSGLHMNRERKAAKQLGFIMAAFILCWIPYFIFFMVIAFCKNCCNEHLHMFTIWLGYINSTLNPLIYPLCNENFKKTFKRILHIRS

[7] = AUC (0 to infinity) in Wistar rat at 1 mg/kg, ip measured upto 24 hrs by HPLC-MS/MS method; type: ADME, organism-based; design: route intraperitoneal, dose 1 mg/kg, time <=24; settings: in vivo
[8] = Clearance in Wistar rat at 3 mg/kg, ip measured upto 24 hrs by HPLC-MS/MS method; type: ADME, organism-based; settings: in vivo
[9] = Bioavailability in Wistar rat at 10 mg/kg, ip measured upto 24 hrs by HPLC-MS/MS method; type: ADME, organism-based; settings: in vivo
[10] = Elimination rate constant in Wistar rat at 3 mg/kg, ip measured upto 24 hrs by HPLC-MS/MS method; type: ADME, organism-based; settings: in vivo
[11] = Stability of compound in stimulated intestinal fluid assessed as half life; type: ADME; settings: simulated gi fluid
[12] = Stability in rat plasma assessed as half life; type: ADME, cell-free
[13] = Elimination rate constant in Wistar rat at 0.5 mg/kg, iv measured upto 24 hrs by HPLC-MS/MS method; type: ADME, organism-based; settings: in vivo
[14] = Elimination rate constant in Wistar rat at 10 mg/kg, ip measured upto 24 hrs by HPLC-MS/MS method; type: ADME, organism-based; settings: in vivo
[15] = Bioavailability in Wistar rat at 0.5 mg/kg, iv measured upto 24 hrs by HPLC-MS/MS method; type: ADME, organism-based; settings: in vivo
[16] = test system: HepG2; assay: Cytotoxicity against human HepG2 cells; type: cell-based
[17] = Bioavailability in Wistar rat at 1 mg/kg, ip measured upto 24 hrs by HPLC-MS/MS method; type: ADME, organism-based; settings: in vivo
[18] = test system: Mus musculus; assay: Reversal of CCI-induced mechano-allodynia in mouse model of neuropathic pain at 10 umol/kg, ip measured after 3 to 5 hrs; type: functional, organism-based; settings: dose 10.0 µmol/kg, time 3-5 hrs
[19] = Microsomal stability in human liver microsomes assessed as half life; type: ADME, Microsome
[20] = Microsomal stability in mouse liver microsomes assessed as half life; type: ADME, Microsome
[21] = Clearance in Wistar rat at 1 mg/kg, ip measured upto 24 hrs by HPLC-MS/MS method; type: ADME, organism-based; settings: in vivo
[22] = test system: Mus musculus; assay: Reversal of CCI-induced mechano-allodynia in mouse model of neuropathic pain at 10 umol/kg, ip after 2 hrs; type: functional, organism-based; settings: dose 10.0 µmol/kg
[23] = target: Sigma non-opioid intracellular receptor 1 (Homo sapiens, UniProt Q99720); assay: Binding affinity to sigma 1 receptor (unknown origin)
Sequence of Sigma non-opioid intracellular receptor 1 (Q99720 whole entry): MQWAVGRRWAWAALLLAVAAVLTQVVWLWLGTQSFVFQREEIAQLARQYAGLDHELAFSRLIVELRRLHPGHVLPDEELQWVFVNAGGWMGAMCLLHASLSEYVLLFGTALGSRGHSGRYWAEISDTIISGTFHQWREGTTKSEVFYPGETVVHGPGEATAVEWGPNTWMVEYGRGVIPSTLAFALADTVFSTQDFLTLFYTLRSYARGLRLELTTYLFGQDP

[24] = Clearance in Wistar rat at 10 mg/kg, ip measured upto 24 hrs by HPLC-MS/MS method; type: ADME, organism-based; settings: in vivo
[25] = Bioavailability in Wistar rat at 3 mg/kg, ip measured upto 24 hrs by HPLC-MS/MS method; type: ADME, organism-based; settings: in vivo
[26] = Stability in mouse plasma assessed as half life; type: ADME, cell-free
[27] = Elimination rate constant in Wistar rat at 1 mg/kg, ip measured upto 24 hrs by HPLC-MS/MS method; type: ADME, organism-based; settings: in vivo
[28] = Microsomal stability in rat liver microsomes assessed as half life; type: ADME, Microsome
[29] = Toxicity in mouse at 10 umol/kg, ip; settings: in vivo, dose 10 µmol/kg
[30] = Stability of compound in stimulated gastric fluid assessed as half life; type: ADME; settings: simulated gi fluid
[31] = target: Voltage-gated inwardly rectifying potassium channel KCNH2 (Homo sapiens, UniProt Q12809)
Sequence of Voltage-gated inwardly rectifying potassium channel KCNH2 (Q12809 whole entry): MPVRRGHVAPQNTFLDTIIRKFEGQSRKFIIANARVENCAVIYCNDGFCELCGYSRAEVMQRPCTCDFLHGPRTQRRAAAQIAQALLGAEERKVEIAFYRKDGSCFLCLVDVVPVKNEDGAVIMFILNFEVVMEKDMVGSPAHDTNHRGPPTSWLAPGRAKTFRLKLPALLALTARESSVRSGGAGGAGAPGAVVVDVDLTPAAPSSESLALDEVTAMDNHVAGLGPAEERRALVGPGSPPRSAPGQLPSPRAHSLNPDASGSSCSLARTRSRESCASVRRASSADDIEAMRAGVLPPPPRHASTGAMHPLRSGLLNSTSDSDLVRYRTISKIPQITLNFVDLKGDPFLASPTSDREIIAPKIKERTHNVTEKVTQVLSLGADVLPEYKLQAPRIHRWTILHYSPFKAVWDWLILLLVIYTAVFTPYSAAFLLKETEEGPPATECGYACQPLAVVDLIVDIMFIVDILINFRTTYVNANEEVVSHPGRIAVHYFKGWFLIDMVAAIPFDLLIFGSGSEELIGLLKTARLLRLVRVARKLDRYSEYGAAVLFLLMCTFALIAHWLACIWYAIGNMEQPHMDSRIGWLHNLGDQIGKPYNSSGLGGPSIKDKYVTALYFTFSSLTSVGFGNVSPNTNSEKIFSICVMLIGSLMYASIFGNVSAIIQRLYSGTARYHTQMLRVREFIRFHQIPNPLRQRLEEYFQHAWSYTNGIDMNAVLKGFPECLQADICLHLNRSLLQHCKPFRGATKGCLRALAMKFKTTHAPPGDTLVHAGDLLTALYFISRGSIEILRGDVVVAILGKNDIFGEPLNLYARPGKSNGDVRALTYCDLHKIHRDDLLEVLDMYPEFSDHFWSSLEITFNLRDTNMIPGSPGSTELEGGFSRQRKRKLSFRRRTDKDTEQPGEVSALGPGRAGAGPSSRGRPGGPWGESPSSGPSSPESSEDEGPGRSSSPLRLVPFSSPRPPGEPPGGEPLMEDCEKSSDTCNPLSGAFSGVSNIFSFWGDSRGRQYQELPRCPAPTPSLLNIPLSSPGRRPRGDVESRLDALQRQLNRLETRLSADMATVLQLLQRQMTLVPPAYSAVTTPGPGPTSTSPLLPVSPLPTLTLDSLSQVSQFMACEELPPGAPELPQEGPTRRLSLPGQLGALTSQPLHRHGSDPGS

[32] = test system: Mus musculus; assay: Antiinflammatory activity in mouse model of ovalbumin/Aspergillus-induced allergic asthma assessed as reduction in eosinophil counts in BALF at 20 umol/kg, ip administered 30 mins prior to allergen challenge and measured after 2 days post challenge; type: functional, organism-based; settings: dose 20.0 µmol/kg, time 2.0 day
[33] = target: Delta-type opioid receptor (Homo sapiens, UniProt P41143); assay: Binding affinity to DOR (unknown origin)
Sequence of Delta-type opioid receptor (P41143 whole entry): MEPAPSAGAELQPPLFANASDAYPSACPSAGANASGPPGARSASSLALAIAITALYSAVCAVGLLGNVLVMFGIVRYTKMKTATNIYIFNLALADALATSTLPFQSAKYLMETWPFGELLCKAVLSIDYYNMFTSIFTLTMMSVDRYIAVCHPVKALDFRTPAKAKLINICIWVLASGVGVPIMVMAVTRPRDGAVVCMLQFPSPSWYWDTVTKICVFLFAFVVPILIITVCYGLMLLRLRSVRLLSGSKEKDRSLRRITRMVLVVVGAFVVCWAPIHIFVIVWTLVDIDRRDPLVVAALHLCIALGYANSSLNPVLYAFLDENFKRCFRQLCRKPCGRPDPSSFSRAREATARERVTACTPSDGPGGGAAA

Compound NC(=O)Cc1ccc(-c2cc(C(=O)O)cc(-n3cc(-c4ccc(C(F)(F)F)cc4)nn3)c2)cc1 has a pKi [1] of 5.55 and a pKi [2] of 6.03.
Work on CC(C)(C)OC(=O)NC1(c2ccc(-c3cc(C(=O)O)cc(-n4cc(-c5ccc(C(F)(F)F)cc5)nn4)c3)cc2)CCC1 yielded a pIC50 [3] of under 5.00.
For O=C(O)c1cc(-c2ccc(-c3cc(CO)on3)cc2)cc(-n2cc(-c3ccc(C(F)(F)F)cc3)nn2)c1, the solubility [4] was 3.72 ug ml-1 and 7.34 uM, the pKi [1] was 6.12 and the solubility [5] was 0.6 µg/mL (≈ 1.18 µM). For the same compound, the pKi [6] was 5.58.
O=C(O)c1cc(-c2ccc(-c3cc(CO)on3)cc2)c2ccc(-c3ccc(C(F)(F)F)cc3)cc2c1 showed an AUC [7] of 700 ng·h/mL, a CL/F [8] of 23.7 mL/min/kg and an F [9] of 105%. The k el at 24 h [10] was 4.11e-05 s⁻¹, the t1/2 [11] was over 4 h and the t1/2 [12] was over 4 h. The k el at 24 h [13] was 0.000281 s⁻¹, the k el at 24 h [14] was 6.47e-05 s⁻¹ and the solubility [4] was 2.43 ug ml-1 and 4.96 uM. For the same compound, the F [15] was 100%, the pIC50 [16] was 5.07 and the F [17] was 139%. For the same compound, the Activity [18] was “inactive”, the t1/2 [19] was over 4 h and the t1/2 [20] was over 4 h. The pKi [1] was 5.33, the CL/F [21] was 23.8 mL/min/kg and the Activity [22] was “inactive”. The pKi [23] was 5.57, the CL/F [24] was 33.8 mL/min/kg and the F [25] was 147%. For the same compound, the t1/2 [26] was over 4 h, the k el at 24 h [27] was 2.67e-05 s⁻¹ and the pKi [2] was 5.32. The t1/2 [28] was 0.795 h, the Activity [29] was “Non-Toxic” and the t1/2 [30] was 2.68 h.
For O=C(O)c1cc(-c2ccc(C3CCNCC3)cc2)c2ccc(-c3ccc(C(F)(F)F)cc3)cc2c1 [PPTN], the pEC50 [31] was under 4.52 and the Activity [32] was “Active”.
O=C(O)c1cc(-c2ccc(NC(=O)C3CCNCC3)cc2)cc(-n2cc(-c3ccc(C(F)(F)F)cc3)nn2)c1 showed a pKi [23] of 5.63 and a pKi [33] of 5.70.

Source: ChEMBL document CHEMBL4808172, “Structure-Activity Relationship of Heterocyclic P2Y14 Receptor Antagonists: Removal of the Zwitterionic Character with Piperidine Bioisosteres” (J Med Chem, 2021)
